# Laboratory results as given in PMC9022596, “Convergent Evolution of Antibiotic Tolerance in Patients with Persistent Methicillin-Resistant Staphylococcus aureus Bacteremia” (Infection and Immunity, 2022).
# “And” between values parts separate entries of the source, which are not always exact repeats. Equal values may be shown once.
# Columns and labels:
# Test in all cases: microbe, parasite or virus in culture
# [1] = test system: T1, Staphylococcus aureus PB1511; design: species or system Staphylococcus aureus clinical blood isolates and ATCC 29213; Broth microdilution MIC in cation-adjusted Mueller-Hinton broth with 50 ug/mL CaCl2, EUCAST reading, 37 C; conditions: PB1511, 16 h, replicate MIC, MHB + 50 ug/mL CaCl2
# T1 construct: PB1511
# Procedure: (§1) MICs were measured in cation-adjusted Mueller-Hinton broth (MHB) supplemented with 50 μg/mL CaCl2 (MHB-Ca^2+) via broth microdilution in 96-well plates with an inoculum of ∼5 × 10^5 CFU per mL. Antibiotic test concentrations ranged from 0.0625 μg/mL to 32 μg/mL by 2-fold dilutions. Plates were incubated at 37°C for 16 h without shaking, and results were interpreted in accordance with European Committee on Antimicrobial Susceptibility Testing reading guidelines ([72]). S. aureus ATCC 29213 was used as a quality-control strain.
# [2] = test system: T2, Staphylococcus aureus PB1803; design: species or system Staphylococcus aureus clinical blood isolates and ATCC 29213; Broth microdilution MIC in cation-adjusted Mueller-Hinton broth with 50 ug/mL CaCl2, EUCAST reading, 37 C; conditions: PB1803, 16 h, replicate MIC, MHB + 50 ug/mL CaCl2
# T2 construct: PB1803
# Procedure: as §1
# [3] = test system: T3, Staphylococcus aureus PB0911; design: species or system Staphylococcus aureus clinical blood isolates and ATCC 29213; Broth microdilution MIC in cation-adjusted Mueller-Hinton broth with 50 ug/mL CaCl2, EUCAST reading, 37 C; conditions: PB0911, 16 h, replicate MIC, MHB + 50 ug/mL CaCl2
# T3 construct: PB0911
# Procedure: as §1
# [4] = test system: T4, Staphylococcus aureus PB0701; design: species or system Staphylococcus aureus clinical blood isolates and ATCC 29213; Broth microdilution MIC in cation-adjusted Mueller-Hinton broth with 50 ug/mL CaCl2, EUCAST reading, 37 C; conditions: PB0701, 16 h, replicate MIC, MHB + 50 ug/mL CaCl2
# T4 construct: PB0701
# Procedure: as §1
# [5] = test system: T5, Staphylococcus aureus PB0603; design: species or system Staphylococcus aureus clinical blood isolates and ATCC 29213; Broth microdilution MIC in cation-adjusted Mueller-Hinton broth with 50 ug/mL CaCl2, EUCAST reading, 37 C; conditions: PB0603, 16 h, replicate MIC, MHB + 50 ug/mL CaCl2
# T5 construct: PB0603
# Procedure: as §1
# [6] = test system: T6, Staphylococcus aureus PB0906; design: species or system Staphylococcus aureus clinical blood isolates and ATCC 29213; Broth microdilution MIC in cation-adjusted Mueller-Hinton broth with 50 ug/mL CaCl2, EUCAST reading, 37 C; conditions: PB0906, 16 h, replicate MIC, MHB + 50 ug/mL CaCl2
# T6 construct: PB0906
# Procedure: as §1
# [7] = test system: T7, Staphylococcus aureus PB0605; design: Broth microdilution MIC in cation-adjusted MHB-Ca2+, growth inhibition per EUCAST reading; conditions: PB0605, 16 h
# T7 construct: PB0605
# Procedure: (§2) MICs were measured in cation-adjusted Mueller-Hinton broth (MHB) supplemented with 50 μg/mL CaCl2 (MHB-Ca^2+) via broth microdilution in 96-well plates with an inoculum of ∼5 × 10^5 CFU per mL. Antibiotic test concentrations ranged from 0.0625 μg/mL to 32 μg/mL by 2-fold dilutions. Plates were incubated at 37°C for 16 h without shaking, and results were interpreted in accordance with European Committee on Antimicrobial Susceptibility Testing reading guidelines ([72]). S. aureus ATCC 29213 was used as a quality-control strain. TCA cycle defects have been shown previously to cause antibiotic tolerance in laboratory strains of methicillin-sensitive S. aureus (MSSA) ([13], [16]). […] To test this hypothesis, we complemented three of the clinical isolates harboring loss-of-function citZ mutations with either wild-type citZ (pOS1-citZ) or empty vector (pOS1) and then measured bacterial survival through time after exposure to ceftaroline, daptomycin, vancomycin, or the combination of daptomycin plus ceftaroline (Fig. 3). These antibiotics were chosen for their clinical relevance in the treatment of severe MRSA infection.
# [8] = test system: T8, Staphylococcus aureus PB1801; design: Broth microdilution MIC in cation-adjusted MHB-Ca2+, growth inhibition per EUCAST reading; conditions: PB1801, 16 h
# T8 construct: PB1801
# Procedure: as §2
# [9] = test system: T9, Staphylococcus aureus PB1505; design: Broth microdilution MIC in cation-adjusted MHB-Ca2+, growth inhibition per EUCAST reading; conditions: PB1505, 16 h
# T9 construct: PB1505
# Procedure: as §2
# [10] = test system: T10, Staphylococcus aureus PB0801; design: Broth microdilution MIC in cation-adjusted MHB-Ca2+, growth inhibition per EUCAST reading; conditions: PB0801, 16 h
# T10 construct: PB0801
# Procedure: as §2
# [11] = test system: T11, Staphylococcus aureus PB0601; design: Broth microdilution MIC in cation-adjusted MHB-Ca2+, growth inhibition per EUCAST reading; conditions: PB0601, 16 h
# T11 construct: PB0601
# Procedure: as §2
# [12] = test system: T12, Staphylococcus aureus PB0412; design: Broth microdilution MIC in cation-adjusted MHB-Ca2+, growth inhibition per EUCAST reading; conditions: PB0412, 16 h
# T12 construct: PB0412
# Procedure: as §2
# [13] = test system: T13, Staphylococcus aureus PB0115; design: Broth microdilution MIC in cation-adjusted MHB-Ca2+, growth inhibition per EUCAST reading; conditions: PB0115, 16 h
# T13 construct: PB0115
# Procedure: as §2
# [14] = test system: T14, Staphylococcus aureus PB0704; design: Broth microdilution MIC in cation-adjusted MHB-Ca2+, growth inhibition per EUCAST reading; conditions: PB0704, 16 h
# T14 construct: PB0704
# Procedure: as §2
# [15] = test system: T15, Staphylococcus aureus PB0609; design: Broth microdilution MIC in cation-adjusted MHB-Ca2+, growth inhibition per EUCAST reading; conditions: PB0609, 16 h
# T15 construct: PB0609
# Procedure: as §2
SMILES,MIC [1] [µg/mL],MIC [2] [µg/mL],MIC [3],MIC [4],MIC [5],MIC [6] [µg/mL],MIC ([7]; replicate 1) [µg/mL],MIC ([7]; replicate 2) [µg/mL],MIC ([8]; replicate 1) [µg/mL],MIC ([8]; replicate 2) [µg/mL],MIC ([9]; replicate 1) [µg/mL],MIC ([9]; replicate 2) [µg/mL],MIC ([10]; replicate 1) [µg/mL],MIC ([10]; replicate 2) [µg/mL],MIC ([11]; replicate 1) [µg/mL],MIC ([11]; replicate 2) [µg/mL],MIC ([12]; replicate 1) [µg/mL],MIC ([12]; replicate 2) [µg/mL],MIC ([13]; replicate 1) [µg/mL],MIC ([13]; replicate 2) [µg/mL],other results
CCO/N=C(\C(=O)N[C@@H]1C(=O)N2C(C(=O)[O-])=C(Sc3nc(-c4cc[n+](C)cc4)cs3)CS[C@H]12)c1nsc(N)n1 [Ceftaroline],0.5,0.5,0.5 µg/mL,0.25 µg/mL,0.25 µg/mL,0.5,0.25,0.25,0.5,0.5,0.5,0.5,0.5,0.5,0.25,0.25,0.5,0.5,0.5,0.5,MIC ([14]; replicate 1): 0.25 µg/mL; MIC ([14]; replicate 2): 0.25 µg/mL; MIC ([15]; replicate 1): 0.25 µg/mL; MIC ([15]; replicate 2): 0.25 µg/mL
CCCCCCCCCC(=O)N[C@@H](Cc1c[nH]c2ccccc12)C(=O)N[C@H](CC(N)=O)C(=O)N[C@@H](CC(=O)O)C(=O)N[C@@H]1C(=O)NCC(=O)N[C@@H](CCCN)C(=O)N[C@@H](CC(=O)O)C(=O)N[C@H](C)C(=O)N[C@@H](CC(=O)O)C(=O)NCC(=O)N[C@H](CO)C(=O)N[C@@H]([C@H](C)CC(=O)O)C(=O)N[C@@H](CC(=O)c2ccccc2N)C(=O)O[C@@H]1C [Daptomycin],2,2,2 µg/mL and 1 µg/mL,1 µg/mL and 2 µg/mL,2 µg/mL,2,1,2,2,2,1,2,1,1,1,1,2,2,2,2,MIC ([14]; replicate 1): 1 µg/mL; MIC ([14]; replicate 2): 1 µg/mL; MIC ([15]; replicate 1): 1 µg/mL; MIC ([15]; replicate 2): 1 µg/mL
CC(=O)NC[C@H]1CN(c2ccc(N3CCOCC3)c(F)c2)C(=O)O1 [Linezolid],4,4,4 µg/mL,4 µg/mL,4 µg/mL,4,4,4,4,4,4,4,4,4,4,4,4,4,4,4,MIC ([14]; replicate 1): 4 µg/mL; MIC ([14]; replicate 2): 4 µg/mL; MIC ([15]; replicate 1): 4 µg/mL; MIC ([15]; replicate 2): 4 µg/mL
CN[C@H](CC(C)C)C(=O)N[C@H]1C(=O)N[C@@H](CC(N)=O)C(=O)N[C@H]2C(=O)N[C@H]3C(=O)N[C@H](C(=O)N[C@H](C(=O)O)c4cc(O)cc(O)c4-c4cc3ccc4O)[C@H](O)c3ccc(c(Cl)c3)Oc3cc2cc(c3O[C@@H]2O[C@H](CO)[C@@H](O)[C@H](O)[C@H]2O[C@H]2C[C@](C)(N)[C@H](O)[C@H](C)O2)Oc2ccc(cc2Cl)[C@H]1O [Vancomycin],2,2,2 µg/mL,2 µg/mL,4 µg/mL and 2 µg/mL,2,2,2,2,2,2,2,2,2,2,2,2,2,2,2,MIC ([14]; replicate 1): 2 µg/mL; MIC ([14]; replicate 2): 2 µg/mL; MIC ([15]; replicate 1): 2 µg/mL; MIC ([15]; replicate 2): 4 µg/mL
